Assay results published in patent US12600726B2, “Antagonists of the muscarinic acetylcholine receptor M4” (Vanderbilt University, priority 2017, dated 2026).

How the values were obtained:
Rat M4 = biological target: T1, Rat M4 (Rattus norvegicus, UniProt P08485); experiment: mAChR M4 cell-based functional calcium flux assay (rat M4/Gqi5/CHO cells); settings: for Emin (rat M4): % ACh maximum at 30 μM
T1 construct: expressed in transfected cells; host or cells: CHO-K1 (ATCC), stably expressing M4 and Gqi5
T1 sequence (P08485 1-478): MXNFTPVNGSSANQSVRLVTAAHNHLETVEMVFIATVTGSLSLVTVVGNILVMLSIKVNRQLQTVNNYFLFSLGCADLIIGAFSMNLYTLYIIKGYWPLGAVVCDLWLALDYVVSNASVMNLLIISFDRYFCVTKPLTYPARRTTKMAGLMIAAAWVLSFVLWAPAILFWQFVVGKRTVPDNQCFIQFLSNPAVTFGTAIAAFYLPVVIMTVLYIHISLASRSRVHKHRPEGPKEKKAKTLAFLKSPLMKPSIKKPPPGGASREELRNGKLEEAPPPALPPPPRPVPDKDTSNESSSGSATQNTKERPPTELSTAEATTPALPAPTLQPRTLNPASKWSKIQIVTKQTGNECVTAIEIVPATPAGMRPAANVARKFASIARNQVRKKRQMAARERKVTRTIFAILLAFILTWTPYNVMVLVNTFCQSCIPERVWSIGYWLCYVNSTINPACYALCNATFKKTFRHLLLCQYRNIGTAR
Protocol: (§1) Human, rat, or mouse M4. cDNA, along with the chimeric G protein Gqi5, were transfected into Chinese hamster ovary (CHO-K1) cells purchased from the American Type Culture Collection using Lipofectamine2000. M4/Gqi5/CHO cells were grown in Ham's F-12 medium containing 10% heat-inactivated fetal bovine serum (FBS), 20 mM HEPES, 500 μg/mL G418 sulfate, and 200 μg/mL Hygromycin B.
(§2) For high throughput measurement of agonist-evoked increases in intracellular calcium, CHO-K1 cells stably expressing muscarinic receptors were plated in growth medium lacking G418 and hygromycin at 15,000 cells/20 μL/well in Greiner 384-well black-walled, tissue culture (TC)-treated, clear-bottom plates (VWR). Cells were incubated overnight at 37° C. and 5% CO2. The next day, cells were washed using an ELX 405 (BioTek) with assay buffer; the final volume was then aspirated to 20 μL. Next, 20 μL of a 2.3 μM stock of Fluo-4/acetoxymethyl ester (Invitrogen, Carlsbad, CA), prepared as a 2.3 mM stock in DMSO and mixed in a 1:1 ratio with 10% (w/v) Pluronic F-127 and diluted in assay buffer, was added to the wells and the cell plates were incubated for 50 min at 37° C. and 5% CO2. Dye was removed by washing with the ELX 405 and the final volume was aspirated to 20 μL. Compound master plates were formatted in a 10 point concentration-response curve (CRC) format (1:3 dilutions) in 100% DMSO with a starting concentration of 10 or 1 mM using a BRAVO liquid handler (Agilent). Test compound CRCs were then transferred to daughter plates (240 nL) using the Echo acoustic plate reformatter (Labcyte, Sunnyvale, CA) and then diluted into assay buffer (40 μL) to a 2× stock using a Thermo Fisher Combi (Thermo Fisher Scientific, Waltham, MA).
(§3) Calcium flux was measured using the Functional Drug Screening System (FDSS) 6000 or 7000 (Hamamatsu Corporation, Tokyo, Japan) as an increase in the fluorescent static ratio. Compounds were applied to cells (20 μL, 2×) using the automated system of the FDSS at 2 seconds into the protocol and the data were collected at 1 Hz. At 143 s, 10 μL of an EC20 concentration of the muscarinic receptor agonist acetylcholine was added (5×), followed by the addition of 12 μL of an EC80 concentration of acetylcholine at the 268 s time point (5×). Agonist activity was analyzed as a concentration-dependent increase in calcium mobilization upon compound addition. Positive allosteric modulator activity was analyzed as a concentration-dependent increase in the EC20 acetylcholine response. Antagonist activity was analyzed as a concentration-dependent decrease in the EC80 acetylcholine response; for the purposes of the tables herein, an IC50 (inhibitory concentration 50) was calculated as a concentration-dependent decrease of the response elicited by an EC80 concentration of acetylcholine. Concentration-response curves were generated using a four-parameter logistical equation in XLFit curve fitting software (IDBS, Bridgewater, NJ) for Excel (Microsoft, Redmond, WA) or Prism (GraphPad Software, Inc., San Diego, CA) or the Dotmatics software platform (Dotmatics, Bishop's Stortford, UK).
(§4) Compounds were synthesized as described above. Activity (IC50 and Emin) was determined in the mAChR M4 cell-based functional assay as described above and the data are shown in Table 2 and Table 3. The compound number corresponds to the compound numbers used in the examples and Tables 1 and 1.1.

Human M4 = biological target: T2, Human M4 (Homo sapiens, UniProt P08173); experiment: mAChR M4 cell-based functional calcium flux assay (human M4/Gqi5/CHO cells); settings: for Emin (human M4): % ACh maximum at 30 μM; for IC50: decrease of the response to an EC80 concentration of acetylcholine
T2 construct: expressed in transfected cells; host or cells: CHO-K1 (ATCC), stably expressing M4 and Gqi5
T2 sequence (P08173 1-479): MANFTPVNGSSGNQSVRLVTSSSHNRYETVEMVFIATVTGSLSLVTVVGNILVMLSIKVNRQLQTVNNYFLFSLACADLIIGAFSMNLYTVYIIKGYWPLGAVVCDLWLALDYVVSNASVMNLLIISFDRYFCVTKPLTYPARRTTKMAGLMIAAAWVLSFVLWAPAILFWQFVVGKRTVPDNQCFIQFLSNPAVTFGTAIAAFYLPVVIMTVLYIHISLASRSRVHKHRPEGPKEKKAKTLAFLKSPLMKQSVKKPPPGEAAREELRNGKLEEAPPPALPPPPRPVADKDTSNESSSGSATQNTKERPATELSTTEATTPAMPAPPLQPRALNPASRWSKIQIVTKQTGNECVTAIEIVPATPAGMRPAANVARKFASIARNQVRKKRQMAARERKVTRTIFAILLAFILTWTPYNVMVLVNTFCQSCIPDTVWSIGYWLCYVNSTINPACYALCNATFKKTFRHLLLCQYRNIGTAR
Protocol: as §1, §2, §3, §4

[1] = decrease of the response to an EC80 concentration of acetylcholine

Emin (rat M4) (Rat M4)	IC50 (Rat M4; [1])	Emin (human M4) (Human M4)	IC50 (Human M4)	IC50 (Rat M4; cells printed in μM, decrease of the EC80 acetylcholine response)	SMILES
4.72%	3.09 µM	3.46%	870 nM	–	O=C(Nc1ccc(-c2cc(F)ccc2Cl)nn1)C1CC12CCN(CC1CC3C=CC1C3)CC2 (centres unmarked) [Compound 18, 6-(5-bicyclo[2.2.1]hept-2-enylmethyl)-N-[6-(2-chloro-5-fluoro-phenyl)pyridazin-3-yl]-6-azaspiro[2.5]octane-2-carboxamide]
34.9%	–	6.57%	5060 nM	> 10 µM	CC(CN1CCC2(CC1)CC2C(=O)Nc1ccc(-c2cc(F)ccc2Cl)nn1)C(C)(C)C (centres unmarked) [Compound 19, N-[6-(2-chloro-5-fluoro-phenyl)pyridazin-3-yl]-6-(2,3,3-trimethylbutyl)-6-azaspiro[2.5]octane-2-carboxamide]
5.14%	1.09 µM	3.47%	270 nM	–	CC(C)(C)CCN1CCC2(CC1)CC2CNc1ccc(Cl)nn1 (centres unmarked) [Compound 20, 6-chloro-N-[[6-(3,3-dimethylbutyl)-6-azaspiro[2.5]octan-2-yl]methyl]pyridazin-3-amine]
4.56%	0.191 µM	3.65%	30.1 nM	–	Cc1nn(C)cc1-c1cnc(NCC2CC23CCN(CC2CC4C=CC2C4)CC3)cn1 (centres unmarked) [Compound 21, N-[[6-(5-bicyclo[2.2.1]hept-2-enylmethyl)-6-azaspiro[2.5]octan-2-yl]methyl]-5-(1,3-dimethylpyrazol-4-yl)pyrazin-2-amine]
4.67%	0.404 µM	3.25%	169 nM	–	Cc1nn(C)cc1-c1cnc(NCC2CC23CCN(CC(C)C(C)(C)C)CC3)cn1 (centres unmarked) [Compound 22, 5-(1,3-dimethylpyrazol-4-yl)-N-[[6-(2,3,3-trimethylbutyl)-6-azaspiro[2.5]octan-2-yl]methyl]pyrazin-2-amine]
4.71%	0.278 µM	2.71%	64.7 nM	–	Cc1nn(C)cc1-c1cnc(NCC2CC23CCN(CCC(C)(C)C)CC3)cn1 (centres unmarked) [Compound 23, N-[[6-(3,3-dimethylbutyl)-6-azaspiro[2.5]octan-2-yl]methyl]-5-(1,3-dimethylpyrazol-4-yl)pyrazin-2-amine]
3.19%	0.159 µM	2.81%	42.8 nM	–	CC(C)(C)CCN1CCC2(CC1)CC2CNc1ccc(-c2ccc(F)cc2Cl)nn1 (centres unmarked) [Compound 24, 6-(2-chloro-4-fluoro-phenyl)-N-[[6-(3,3-dimethylbutyl)-6-azaspiro[2.5]octan-2-yl]methyl]pyridazin-3-amine]
3.75%	0.0778 µM	2.93%	4.35 nM	–	Cc1ccncc1-c1ccc(NCC2CC23CCN(CCC(C)(C)C)CC3)nn1 (centres unmarked) [Compound 25, N-[[6-(3,3-dimethylbutyl)-6-azaspiro[2.5]octan-2-yl]methyl]-6-(4-methyl-3-pyridyl)pyridazin-3-amine]
3.40%	0.192 µM	2.98%	13.3 nM	–	CC(C)(C)CCN1CCC2(CC1)CC2CNc1ccc(-c2ccccc2F)nn1 (centres unmarked) [Compound 26, N-[[6-(3,3-dimethylbutyl)-6-azaspiro[2.5]octan-2-yl]methyl]-6-(2-fluorophenyl)pyridazin-3-amine]
3.07%	0.153 µM	3.18%	21.3 nM	–	CC(C)(C)CCN1CCC2(CC1)CC2CNc1ccc(-c2cccc(F)c2)nn1 (centres unmarked) [Compound 27, N-[[6-(3,3-dimethylbutyl)-6-azaspiro[2.5]octan-2-yl]methyl]-6-(3-fluorophenyl)pyridazin-3-amine]
2.59%	0.261 µM	2.74%	55.7 nM	–	CC(C)(C)CCN1CCC2(CC1)CC2CNc1ccc(-c2ccc(F)cc2F)nn1 (centres unmarked) [Compound 28, 6-(2,4-difluorophenyl)-N-[[6-(3,3-dimethylbutyl)-6-azaspiro[2.5]octan-2-yl]methyl]pyridazin-3-amine]
3.14%	0.0398 µM	2.78%	17.2 nM	–	Cc1ccc(F)cc1-c1ccc(NCC2CC23CCN(CCC(C)(C)C)CC3)nn1 (centres unmarked) [Compound 29, N-[[6-(3,3-dimethylbutyl)-6-azaspiro[2.5]octan-2-yl]methyl]-6-(5-fluoro-2-methyl-phenyl)pyridazin-3-amine]
3.26%	0.107 µM	2.43%	31.2 nM	–	CC(C)(C)CCN1CCC2(CC1)CC2CNc1ccc(-c2cc(F)ccc2F)nn1 (centres unmarked) [Compound 30, 6-(2,5-difluorophenyl)-N-[[6-(3,3-dimethylbutyl)-6-azaspiro[2.5]octan-2-yl]methyl]pyridazin-3-amine]
2.87%	0.0688 µM	3.03%	22.1 nM	–	COc1ccc(F)cc1-c1ccc(NCC2CC23CCN(CCC(C)(C)C)CC3)nn1 (centres unmarked) [Compound 31, N-[[6-(3,3-dimethylbutyl)-6-azaspiro[2.5]octan-2-yl]methyl]-6-(5-fluoro-2-methoxy-phenyl)pyridazin-3-amine]
2.80%	0.168 µM	2.71%	74.9 nM	–	CC(C)(C)CCN1CCC2(CC1)CC2CNc1ccc(-c2ccc(F)c(F)c2)nn1 (centres unmarked) [Compound 32, 6-(3,4-difluorophenyl)-N-[[6-(3,3-dimethylbutyl)-6-azaspiro[2.5]octan-2-yl]methyl]pyridazin-3-amine]
2.09%	0.11 µM	2.48%	40 nM	–	CC(C)(C)CCN1CCC2(CC1)CC2CNc1ccc(-c2cc(F)cc(F)c2)nn1 (centres unmarked) [Compound 33, 6-(3,5-difluorophenyl)-N-[[6-(3,3-dimethylbutyl)-6-azaspiro[2.5]octan-2-yl]methyl]pyridazin-3-amine]
2.88%	0.0862 µM	2.24%	17.8 nM	–	CC(C)(C)CCN1CCC2(CC1)CC2CNc1ccc(-c2ccccc2)nn1 (centres unmarked) [Compound 34, N-[[6-(3,3-dimethylbutyl)-6-azaspiro[2.5]octan-2-yl]methyl]-6-phenyl-pyridazin-3-amine]
